Data published in ChEMBL document CHEMBL2040547, “Synthesis of natural flutimide and analogous fully substituted pyrazine-2,6-diones, endonuclease inhibitors of influenza virus” (J Org Chem, 2001).
pIC50: −log10 of the molar value.

Target: Polymerase acidic protein (Influenza A virus (A/Puerto Rico/8/1934(H1N1)), UniProt P03433)
Test: Inhibition of cap 1 ALMV primed Influenza transcriptase

SMILES	pIC50
CC(C)CC1=N/C(=C\c2ccc(F)cc2)C(=O)NC1=O	< 3.70
CC(C)/C=C1\N=C(CC(C)C)C(=O)N(O)C1=O	5.29
COCON1C(=O)C(CC(C)C)=N/C(=C\C(C)C)C1=O	< 3.70
COCON1C(=O)[C@H]([C@H](O)C(C)C)N(Cc2ccccc2)[C@@H](CC(C)C)C1=O	< 3.70
COCON1C(=O)[C@H]([C@H](O)C(C)C)N(Cc2ccccc2)[C@@H](Cc2ccccc2)C1=O	< 3.70
COCON1C(=O)[C@H]([C@@H](O)C(C)C)N(Cc2ccccc2)[C@@H](Cc2ccccc2)C1=O	< 3.70
COCON1C(=O)/C(=C/c2ccccc2F)N(Cc2ccccc2)[C@@H](CC(C)C)C1=O	< 3.70
COCON1C(=O)/C(=C\C(C)C)N(Cc2ccccc2)[C@@H](CC(C)C)C1=O	< 3.70
COCON1C(=O)/C(=C\C(C)C)N(Cc2ccccc2)[C@@H](Cc2ccccc2)C1=O	< 3.70
COCON1C(=O)C(CC(C)C)=N/C(=C\c2ccccc2)C1=O	< 3.70
COCON1C(=O)C(CC(C)C)=N/C(=C\c2ccc(OC)cc2)C1=O	< 3.70
COCON1C(=O)C(CC(C)C)=N/C(=C\c2ccc(F)cc2)C1=O	< 3.70
COCON1C(=O)C(CC(C)C)=N/C(=C\c2cccc(F)c2)C1=O	< 3.70
COCON1C(=O)C(CC(C)C)=N/C(=C\c2ccccc2F)C1=O	< 3.70
COCON1C(=O)C(Cc2ccccc2)=N/C(=C\C(C)C)C1=O	< 3.70
COCON1C(=O)C(Cc2ccccc2)=N/C(=C\c2ccc(OC)cc2)C1=O	< 3.70
COCON1C(=O)C(Cc2ccccc2)=N/C(=C\c2ccc(F)cc2)C1=O	< 3.70
O=C1C(Cc2ccccc2)NC(Cc2ccc(F)cc2)C(=O)N1O (stereo not drawn)	4.07
